Common to all, as to type: functional
Assay [1] can be described thus: Minimum inhibitory concentration (mixture of alpha and beta) against Issatchenkia orientalis DBVPG 6782. The conditions noted are these: Pichia kudriavzevii.
In assay [2] the test system is Candida albicans. Description: Minimum inhibitory concentration (mixture of alpha and beta) against Candida albicans DBVPG 6133.
Assay [3] has as its system Nakaseomyces glabratus. Nature of the assay: Minimum inhibitory concentration (mixture of alpha and beta) against Candida glabrata DBVPG 3828.
Assay [4] in a line: Minimum inhibitory concentration against Issatchenkia orientalis DBVPG 6782. As to conditions: Pichia kudriavzevii.
Assay [5] has as its system Nakaseomyces glabratus. Description: Minimum inhibitory concentration in association with methyl gallate (36.8 µg/mL) against Candida glabrata DBVPG 3828.
For assay [6], the system named is Candida albicans. Description: Minimum inhibitory concentration in association with gallic acid (34.0 µg/mL) against Candida albicans DBVPG 6133.
Assay [7] deals with Candida albicans. Nature of the assay: Minimum inhibitory concentration in association with mixture of alpha/beta O-methylgluco-2,3-digalloyl ester (49.8 µg/mL) against Candida albicans DBVPG 6133.
Assay [8] deals with Nakaseomyces glabratus. Description: Minimum inhibitory concentration in association with mixture of alpha/beta O-methylgluco-2,3-digalloyl ester (49.8 µg/mL) against Candida glabrata DBVPG 3828.
In assay [9] the test system is Nakaseomyces glabratus. Nature of the assay: Minimum inhibitory concentration against Candida glabrata DBVPG 3828.
A short description of assay [10]: Minimum inhibitory concentration in association with mixture of alpha/beta O-methylgluco-2,3-digalloyl ester (49.8 µg/mL) against Issatchenkia orientalis DBVPG 6782. The conditions noted are these: Pichia kudriavzevii.
A short description of assay [11]: Minimum inhibitory concentration in association with methyl gallate (36.8 µg/mL) against Issatchenkia orientalis DBVPG 6782. As to conditions: Pichia kudriavzevii.
Assay [12] concerns Candida albicans. Description: Minimum inhibitory concentration against Candida albicans DBVPG 6133.
Assay [13] relates to Candida albicans. Nature of the assay: Minimum inhibitory concentration in association with methyl gallate (36.8 µg/mL) against Candida albicans DBVPG 6133.
Assay [14] concerns Nakaseomyces glabratus. Nature of the assay: Minimum inhibitory concentration in association with gallic acid (34.0 µg/mL) against Candida glabrata DBVPG 3828.
A short description of assay [15]: Minimum inhibitory concentration in association with gallic acid (34.0 µg/mL) against Issatchenkia orientalis DBVPG 6782. The conditions noted are these: Pichia kudriavzevii.

Structures are written as SMILES. Values after ≈ are worked out from the molar mass of the structure shown. Bounds are passed on as bounds.

`COC1O[C@H](CO)[C@@H](O)[C@H](OC(=O)c2cc(O)c(O)c(O)c2)[C@H]1OC(=O)c1cc(O)c(O)c(O)c1` (stereo not given in full): the MIC is above 4670 µg/mL in [1], 1940 µg/mL (≈ 3890 µM) in the assay with Candida albicans [2] and above 4670 µg/mL with Nakaseomyces glabratus [3].
`C[C@@H]1[C@H](O)[C@@H](C)/C=C/C=C/C=C/C=C/C=C/C=C/C=C/[C@H](O[C@@H]2O[C@H](C)[C@@H](O)[C@H](N)[C@@H]2O)C[C@@H]2O[C@](O)(C[C@@H](O)C[C@@H](O)[C@H](O)CC[C@@H](O)C[C@@H](O)CC(=O)O[C@H]1C)C[C@H](O)[C@H]2C(=O)O` [AMPHOTERICIN B]: the MIC in [4] is above 100 µg/mL; with Nakaseomyces glabratus [5], 0.09 µg/mL (≈ 0.0974 µM); in the assay on Candida albicans [6] it was 0.09 µg/mL (≈ 0.0974 µM); in the assay on Candida albicans [7] it was 0.05 µg/mL (≈ 0.0541 µM); in the assay on Nakaseomyces glabratus [8], 0.05 µg/mL (≈ 0.0541 µM); against Nakaseomyces glabratus [9], 1.06 µg/mL (≈ 1.15 µM). For the same compound, the MIC was 2.05 µg/mL (≈ 2.22 µM) in assay [10]; 45 µg/mL (≈ 48.7 µM) in [11]; 1.06 µg/mL (≈ 1.15 µM) against Candida albicans [12]; 0.09 µg/mL (≈ 0.0974 µM) against Candida albicans [13]; 1 µg/mL (≈ 1.08 µM) with Nakaseomyces glabratus [14]; 8 µg/mL (≈ 8.66 µM) in assay [15].

In general, MIC refers to the least concentration at which growth counts as inhibited.

Source of the values: ChEMBL document CHEMBL1142808, “O-Methylglucogalloyl esters: synthesis and evaluation of their antimycotic activity” (2005).
